# Key:
# dogs = details: repeated oral administration in dogs; cited from earlier work
# rats [1] = details: cited from earlier work
# [2] = Canine rapid pacing severe dilated cardiomyopathy model, long-term repeated oral administration; type: in vivo; details: dog, in vivo; after oral administration, 3 mg/kg
# Method: (§1) A sham operation was performed for a Sham group. After the pacemaker was operated, and it was confirmed in an electrocardiogram (Lead II) that the heartbeat was linked to the pulse rate, the incision site was sutured.
# (§2) The animals were grouped evenly based on the cardiac function (EF) 4 weeks after rapid pacing. […] An empty capsule was administered to the control group in the same manner.
# (§3) Electrocardiography (Lead II) was performed once a week during the period of induction of pathological condition (4 weeks). After administration of the test substance, electrocardiography was performed at the time of echocardiographic measurement. Examination with a stethoscope was performed every day. Specifically, the number of beats per 10 seconds was measured every day, and if an abnormality was found in examination with a stethoscope, an electrocardiogram was measured to confirm the presence or absence of pacing errors.
# (§4) The general condition of the animals (death, posture, activity, color of gums, the presence or absence of ascites, feces, etc.) and food intake were observed every day (at the time of administration in the morning and in the evening, i.e., twice). […] The survival rate was observed twice daily for 6 months from the day of the start of administration of the test substance. Moribund animals were determined to be dead when they had no reaction in at least one item of examination of pinna, auditory, and nociception reflexes.
# (§5) The body weight was measured on the date of implantation of the pacemaker, the date of operation of the pacemaker, and every week thereafter.
# (§6) Echocardiographic measurement was performed before the preparation of the model (Pre); Week 4 (at the time of grouping) (before administration of the test substance); and 2 weeks, 4 weeks (1 month), 2 months, 3 months, 4 months, 5 months, and 6 months (at the time of dissection) after the start of administration of the test substance, as measurement points.
# (§7) The echocardiographic measurement was performed without anesthesia, using an ultrasound imaging apparatus. A sector probe (10 MHz) was placed on the chest, and the diastolic left ventricular internal dimension (LVIDd), the systolic left ventricular internal dimension (LVIDs), the interventricular septal thickness at end-diastole (IVSTd), and the left ventricular posterior wall thickness in end diastole (LVPWd) were measured at M-mode. Moreover, the ejection fraction […] and the fractional shortening […] were calculated.
# [3] = tested on: canine rapid pacing severe dilated cardiomyopathy model; assay: as above; type: in vivo
# Method: as §1, §2, §3, §4, §5, §6, §7
# [4] = tested on: rat coronary artery complete ischemia model; assay: Model of ischemia (MI) by rat coronary artery complete ligation (Tests 1 and 2): echocardiography, body weight; details: for Action on left ventricular systolic function: MI Test 1, 28-day repeated oral administration b.i.d., NOAEL-based doses; for value of change in E.F. compared with E.F. on Day 1 / value of change in F.S. compared with F.S. on Day 1: B-MS 100, C-MS 50, F-MS 30 mg/kg s.c. single injection
# [5] = tested on: spontaneous dilated cardiomyopathy (J2N-k) hamster model; assay: Spontaneous dilated cardiomyopathy (J2N-k) hamster model, 8-week administration from 20 weeks of age (Tests 1-3): echocardiography, body weight
# Outline: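 Male J2N-k δ-glycan-deficient hamsters (delivered at 18 weeks; 2-week acclimation) were dosed by oral gavage twice daily for 8 weeks in 0.5% CMC-Na (G in distilled water; 5 mL/kg) at human-equivalent doses, e.g. cilostazol 1.7 mg/kg. Camostat PLGA preparation was given 10 mg/kg s.c. every 4 weeks. Echocardiographic EF/FS changes from baseline were assessed at 4 and 8 weeks versus vehicle.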
# [6] = tested on: spontaneous dilated cardiomyopathy (J2N-k) hamster model; assay: Long-term (36 weeks) administration in J2N-k hamster model: cardiac function, survival rate; type: in vivo
# Method: ONO-1301 and (K) candesartan, which is ARB, were each individually orally administered to a δ-glycan-deficient spontaneous dilated cardiomyopathy (J2N-k) hamster model twice daily repeatedly for 36 weeks, after the onset of pathological condition (20 weeks old); and changes in cardiac function and survival rates in long-term administration were compared for evaluation. Specifically, echocardiographic measurement was performed after the onset of pathological condition (20 weeks old); the animals were grouped evenly based on the ejection fractions (EF values) and the body weights (Table 15), and each test substance was individually administered for 36 weeks.
# The test was performed in the same manner as described in the section “1. Investigation of effects in spontaneous dilated cardiomyopathy (J2N-k) hamster model” above.
# ONO-1301 was administered at 3 mg/kg twice per day. Candesartan was administered at 3 mg/kg once per day, and only vehicle was administered at the second administration. To the control group, vehicle (0.5% CMC-Na) was administered twice daily.
# [7] = tested on: lauric acid-induced rat hind limb circulatory disorder model; details: oral, 7 consecutive days; cited from earlier work
# rats [8] = details: rat, in vivo, sc; cited from earlier work
# [9] = tested on: mice with ethionine-induced pancreatitis; details: oral, twice daily; cited from earlier work
# rats [10] = assay: Repeated oral administration toxicity study in rats (dose-setting basis); details: mg/kg twice per day, oral preparation
# Text: The dose-setting basis for the doses of the test substances used in pharmacological tests is as described below.
# [11] = MI Test 1, NOAEL doses, 1 Day (grouping), mean ± S.D.
# [12] = MI Test 1, NOAEL doses, 7 Day, mean ± S.D.
# [13] = MI Test 1, NOAEL doses, 14 Day, mean ± S.D.
# [14] = MI Test 1, NOAEL doses, 21 Day, mean ± S.D.
# [15] = MI Test 1, NOAEL doses, 29 Day, mean ± S.D.
# [16] = Test 1, p.o. b.i.d., NOAEL-based dose
# [17] = Test 2, p.o. b.i.d., NOAEL-based dose
# [18] = MI Test 2, 14 Day, B 150, G 5, I 30, C 10 mg/kg p.o. b.i.d., mean ± S.D.
# [19] = MI Test 2, 29 Day, B 150, G 5, I 30, C 10 mg/kg p.o. b.i.d., mean ± S.D.
structure (smiles),measurement,setting,value
"O=C(O)COc1cccc2c1CCC=C2CCO/N=C(\c1ccccc1)c1cccnc1 [Compound A, (E)-[5-[2-[1-phenyl-1-(3-pyridyl)methylideneaminooxy]ethyl]-7,8-dihydronaphthalen-1-yloxy]acetic acid]",No-observed-adverse-effect level,dogs,3 mg/kg
same,No-observed-adverse-effect level,rats [1]; repeated oral administration in rats,3 mg/kg
same,Tmax,[2],1.5 to 2.5 h
same,Number of animals alive 26 weeks after start of administration,[3]; 3 mg/kg p.o. twice daily,1/6
same,Time after start of administration at which death was first observed,[3]; 3 mg/kg p.o. twice daily,44 days
same,Survival rate (Kaplan-Meier curve) compared with control,"[3]; 3 mg/kg p.o. twice daily, 26 weeks",significant prolonging effect on the survival rate
same,Amount of change (Δ) in EF compared with control,[3]; 2 weeks and 4 weeks after start of administration,significantly higher
same,Body weight gain compared with control,[3]; 6 weeks and 8 weeks after start of administration,suppressed
same,Effect on heart rate in echocardiography at Tmax,[3]; oral 3 mg/kg,no effect on the heart rate
same,Action on left ventricular systolic function,[4],suppression action on the deterioration of left ventricular systolic function
same,Body weight,[4]; [11],231.4 ± 4.9 g
same,% FS: value of change compared with the value on Day 1,[4]; [12],1%
same,Body weight,[4]; [12],237.8 ± 15.0 g
same,EF: value of change compared with the value on Day 1,[4]; [12],1%
same,% FS: value of change compared with the value on Day 1,[4]; [13],0%
same,Body weight,[4]; [13],257.1 ± 20.7 g
same,EF: value of change compared with the value on Day 1,[4]; [13],0%
same,Body weight,[4]; [14],277.1 ± 17.3 g
same,% FS: value of change compared with the value on Day 1,[4]; [15],-3%
same,Body weight,[4]; [15],293.6 ± 18.9 g
same,EF: value of change compared with the value on Day 1,[4]; [15],-6%
same,Body weight 0 W,"[5]; Test 1, at grouping",112.5 g
same,LVIDd 4 W,"[5]; Test 1, p.o. b.i.d.",6.9 mm
same,LVIDd 8 W,"[5]; Test 1, p.o. b.i.d.",7.6 mm
same,LVIDs 4 W,"[5]; Test 1, p.o. b.i.d.",5.6 mm
same,LVIDs 8 W,"[5]; Test 1, p.o. b.i.d.",6.2 mm
same,Body weight 4 W,[5]; [16],120.2 g
same,Body weight 8 W,[5]; [16],120.6 g
same,Effect in long-term administration compared with candesartan,[6],effect superior to that of candesartan
same,EF compared with control group,[6]; 3.0 mg/kg,significant improvement effect
same,FS% compared with control group,[6]; 3.0 mg/kg,Significantly higher values
"CC#CCC(C)[C@H](O)/C=C/[C@@H]1[C@H]2c3cccc(CCCC(=O)O)c3O[C@H]2C[C@H]1O (mixture of isomers) [Compound F, Beraprost sodium]",Dose significantly ameliorating the disorder of the hind limbs,[7],300 µg/kg/day
same,No-observed-effect level,"rats [1]; rats, 12 months",0.01 mg/kg/day
same,Dose at which toxic findings were observed,"rats [1]; repeated administration in rats, duration per compound",≥ 0.1 mg/kg/day
same,Action on left ventricular systolic function,[4],suppression action on the deterioration of left ventricular systolic function
same,Body weight,[4]; [11],230.4 ± 3.3 g
same,% FS: value of change compared with the value on Day 1,[4]; [12],0%
same,Body weight,[4]; [12],232.3 ± 10.0 g
same,EF: value of change compared with the value on Day 1,[4]; [12],0%
same,% FS: value of change compared with the value on Day 1,[4]; [13],-2%
same,Body weight,[4]; [13],252.6 ± 9.8 g
same,EF: value of change compared with the value on Day 1,[4]; [13],-3%
same,Body weight,[4]; [14],272.9 ± 7.7 g
same,% FS: value of change compared with the value on Day 1,[4]; [15],-3%
same,Body weight (g),[4]; [15],295.4 ± 8.6 (7) g
same,EF: value of change compared with the value on Day 1,[4]; [15],-6%
same,Body weight change compared with control group,"[4]; MI Test 1, until Day 29",Significant body weight gain suppression
same,Body weight 0 W,"[5]; Test 2, at grouping",119.9 g
same,LVIDd 4 W,"[5]; Test 2, p.o. b.i.d.",7.1 mm
same,LVIDd 8 W,"[5]; Test 2, p.o. b.i.d.",7.5 mm
same,LVIDs 4 W,"[5]; Test 2, p.o. b.i.d.",5.9 mm
same,LVIDs 8 W,"[5]; Test 2, p.o. b.i.d.",6.3 mm
same,% FS 4 W,[5]; [17],significantly higher
same,% FS value of change at 4 W compared with 0 W,[5]; [17],significantly higher
same,Body weight 1 W,[5]; [17],120.8 g
same,Body weight 2 W,[5]; [17],122.7 g
same,Body weight 3 W,[5]; [17],124.9 g
same,Body weight 4 W,[5]; [17],127.1 g
same,Body weight 5 W,[5]; [17],128.2 g
same,Body weight 6 W,[5]; [17],129.6 g
same,Body weight 7 W,[5]; [17],129.9 g
same,Body weight 8 W,[5]; [17],130.0 g
same,EF 4 W,[5]; [17],significantly higher
"CN(C)C(=O)COC(=O)Cc1ccc(OC(=O)c2ccc(NC(=N)N)cc2)cc1 [Compound B, Camostat mesilate]",LD50,rats [8],1329 mg/kg
same,EF actual measured value and/or amount of change compared with control,"[4]; MI Test 2, Day 14 and Day 29",significantly higher
same,"Values of cardiac function (EF, FS %) compared with control","[4]; MI Test 2, oral b.i.d. 4 weeks or single subcutaneous administration",significantly higher
same,Body weight,"[4]; MI Test 2, 1 Day, B 150, G 5, I 30, C 10 mg/kg p.o. b.i.d., B MS 100, C MS 50, I MS 30 mg/kg s.c. single injection, mean",243.5 g
same,Body weight,"[4]; MI Test 2, 7 Day, B 150, G 5, I 30, C 10 mg/kg p.o. b.i.d., B MS 100, C MS 50, I MS 30 mg/kg s.c. single injection, mean",249.1 g
same,Body weight,"[4]; MI Test 2, 14 Day, B 150, G 5, I 30, C 10 mg/kg p.o. b.i.d., B MS 100, C MS 50, I MS 30 mg/kg s.c. single injection, mean",262.4 g
same,value of change in E.F. compared with E.F. on Day 1,[4]; [18],<−4.2 ± 2.5> %
same,value of change in F.S. compared with F.S. on Day 1,[4]; [18],<−2.3 ± 5.3> %
same,Body weight,"[4]; MI Test 2, 21 Day, B 150, G 5, I 30, C 10 mg/kg p.o. b.i.d., B MS 100, C MS 50, I MS 30 mg/kg s.c. single injection, mean",273.9 g
same,Body weight,"[4]; MI Test 2, 29 Day, B 150, G 5, I 30, C 10 mg/kg p.o. b.i.d., B MS 100, C MS 50, I MS 30 mg/kg s.c. single injection, mean",293.5 g
same,value of change in E.F. compared with E.F. on Day 1,[4]; [19],<−7.3 ± 4.2> %
same,value of change in F.S. compared with F.S. on Day 1,[4]; [19],<−3.9 ± 2.2> %
same,LVIDd 4 W,"[5]; Test 1, p.o. b.i.d.",6.8 mm
same,LVIDd 8 W,"[5]; Test 1, p.o. b.i.d.",7.3 mm
same,LVIDs 4 W,"[5]; Test 1, p.o. b.i.d.",5.6 mm
same,LVIDs 8 W,"[5]; Test 1, p.o. b.i.d.",6.1 mm
same,LVIDs 8 W,"[5]; Test 1, p.o. b.i.d., listed as camostat",significantly lower
same,Body weight 1 W,"[5]; hamster, in vivo, po",114.4 g
same,Body weight 2 W,"[5]; hamster, in vivo, po",117.7 g
same,Body weight 3 W,"[5]; hamster, in vivo, po",119.0 g
same,Body weight 4 W,"[5]; hamster, in vivo, po",121.3 g
same,Body weight 5 W,"[5]; hamster, in vivo, po",121.9 g
same,Body weight 6 W,"[5]; hamster, in vivo, po",122.2 g
same,Minimal effective dose (screening 2),"[5]; mg/kg twice per day, oral preparation",5 mg/kg
same,Dose suppressing increase in protease activity in the pancreas,[9],300 mg/kg
same,Maximum no-observed-adverse-effect level (screening 1),rats [10],150 mg/kg

# — patent publication US20200360391A1, “Medicinal Composition for Treating Intractable Heart Disease” (Osaka University, priority 2016, published 2020)
